Key:
[1] = Resazurin reduction assay (growth inhibition / cytotoxicity); settings: human
Method: (§1) To investigate the effects of the in silico identified compounds on cell viability, we used CYP2C19-overexpressing HepG2 cells (Figure 3). Different concentrations (ranging from 0.003 to 100 μM) were tested.
(§2) Figure 3 Resazurin assay of cytochrome P450 2C19-overexpressing HepG2 cells treated with different concentrations of the six selected compounds. All experiments were performed in three replicate measurements of mean ± SD.
(§3) CYP2C19-overexpressing HepG2 cells were originated as previously described. Cells were grown in DMEM medium (DMEM, 31966021, Gibco™, Billings, MT, USA) at 37 °C and 5% CO2 in a humidified incubator. DMEM media were supplemented with 10% fetal bovine serum (FBS) and with 3 μg/mL blasticidin (ant-bl-05, InvivoGen, San Diego, CA, USA) to preserve the selection of transfected CYP2C19-overexpressing HepG2 cells.
(§4) Aliquots of 10^4 CYP2C19-overexpressing HepG2 cells were seeded per well into 96-well plates. Cells were treated with different concentrations of the selected compounds with a range from 0.003 to 100 µM in a total volume of 200 µL for 72 h. Successively, 20 µL/well of resazurin 0.01% w/v (Sigma Aldrich, Taufkirchen, Germany) was added. The fluorescence intensity was measured with an Infinite M200 Pro-plate reader (Tecan, Crailsheim, Germany). Dose–response curves were engendered for three independent experiments for each compound, and 50% inhibition concentrations (IC50) were calculated. The analysis was represented using the […] GraphPad Software (version 9.5.1) (La Jolla, CA, USA).

[2] = test system: CYP2C19-overexpressing HepG2 cells; assay: as above; settings: CYP2C19-overexpressing HepG2 cells, 0.003 to 100 μM, 72 h
Method: as §1, §2, §3, §4

[3] = test system: CYP2C19-overexpressing HepG2 cells; type: cell-based
Method: Figure 8 Flow cytometric cell cycle analysis of cytochrome CYP2C19-overexpressing HepG2 cells treated with IC50 concentrations of compounds 4 and 6. The data are represented as mean and SD of three independent experiments. (* p < 0.05, ** p < 0.01, compared to DMSO-treated cells).
CYP2C19-overexpressing HepG2 cells were treated with IC50 concentrations of compounds 4 and 6 for 24 h. Then, the cells were fixed using 80% cold ethanol and stored overnight at −20 °C. Successively, the cells were washed twice with PBS and resuspended in 1 mL of cold PBS containing 1mg/mL RNaseA (Sigma-Aldrich, Taufkirchen, Germany) and 50 μg/mL PI (Sigma-Aldrich, Taufkirchen, Germany). After 15 min of incubation, the measurements were performed using a BD LSRFortessa™ Cell Analyzer (Becton-Dickinson, Heidelberg, Germany). DMSO-treated cells were used as a negative control.

[4] = test system: CYP2C19-overexpressing HepG2 cells; assay: RNA sequencing with pathway enrichment analysis; type: cell-based; settings: for genes of 'cholesterol biosynthetic process' influenced by only one compound: Venn diagram of compounds 4-6, vs DMSO; for genes of 'DNA replication' pathway exclusively influenced by the compound: Venn diagram of compounds 4 and 6, vs DMSO
Method: Functional enrichment analysis with clusterProfiler was executed using the gene ontology biological process annotation. Finally, with the GeneTonic software (version 2.4.0), a visual summary of the influenced pathways, from here on referred to as 'enriched pathways', was created. […] The size of the dots corresponds to the number of genes in the reference gene set. […] Control cells were treated with 0.2% DMSO. After 24 h of incubation, the cells were harvested. RNA extraction was performed with an […] RNA Mini Kit (Invitek Molecular GmbH, Berlin, Germany) according to the manufacturer's instructions. The cell pellet was lysed with 350 μL of Lysis Solution and treated with β-mercaptoethanol. After DNA removal, 350 μL of 70% ethanol was added, and the sample was applied onto the RNA-RTA spin filter. After several washing steps, RNA was eluted with 60 μL of Elution Buffer R, and the concentration and purity were measured with NanoDrop. RNA sequencing was performed by […] GmbH, Mainz, Germany. The quality of the extracted RNA was verified by the company with a 2100 Bioanalyzer system (Agilent Technologies, Santa Clara, CA, USA). After mRNA isolation and library preparation using a NEBNext^© UltraTM II Directional RNA Library Prep Kit (New England Biolabs, Ipswich, MA, USA), RNA sequencing of around 25 Mio PE reads (2 × 12.5 M reads, 2 × 150 nt) was performed with an Illumina NextSeq 2000TM system. Each treatment and control group included two replicates. The FastQC tool (0.12.0, https://www.bioinformatics.babraham.ac.uk/projects/fastqc/) (accessed 15 February 2023) was used for quality control on the sequencing data. Transcript abundance estimates were computed with Salmon (version 1.5.0) with a transcriptome index generated by GENCODE (version 38) and then summarized to the gene level with the […] package (version 1.16.0). Exploration, modelling, and interpretation of the expression data followed the protocols defined by Ludt et al. […] Exploratory data analysis was performed with the pcaExplorer package (version 2.24.0). […] Accurate estimation of the effect sizes (described as log2-fold changes) was performed using the […] shrinkage estimator (version 1.20.0). Further analyses included gene ontology pathway enrichment by topGO (version 2.50.0) using all expressed genes as a background dataset and the ideal package (version 1.22.0) and by clusterProfiler (version 4.6.0) with default settings and the log2-fold change as the input.

[5] = IC50 concentration, 24 h, vs DMSO

Compound | IC50 at 72 h [1] | G0/G1 population [3] | percentage change in the sub-G0 and G2/M phases [3] | percentage of S-phase cells [3] | cell death mechanisms 'autophagy' and 'process utilizing autophagic mechanism' [4, 5] | mitosis-related pathways ('mitotic sister chromatid segregation', 'sister chromatid segregation', 'regulation of mitotic sister chromatid separation', 'chromosome organization') [4, 5] | pathway 'DNA replication' [4, 5] | pathways 'cholesterol metabolic process' and 'sterol metabolic process' [4, 5] | pathways 'cytokine production' and 'regulation of cytokine production' [4, 5] | genes of 'cholesterol biosynthetic process' influenced by only one compound [4] | genes of 'DNA replication' pathway exclusively influenced by the compound [4] | affected genes related to 'regulation of cytokine production' ([4]; vs DMSO) | further results
O=C(OC1CCCCC1)c1ccccc1C(=O)OC1CCCCC1 [compound 1, dicyclohexyl phthalate] | 88 ± 7.77 µM |  |  |  |  |  |  |  |  |  |  |  | 
CC(C)COC(=O)c1ccccc1C(=O)OCC(C)C [compound 2, diisobutyl phthalate] | > 100 µM |  |  |  |  |  |  |  |  |  |  |  | cytotoxic effect [2]: did not exhibit any cytotoxic effect
CC(C)(C)CC(C)(C)c1ccc(O)c(-n2nc3ccccc3n2)c1 [compound 3, octrizole] | 67.5 ± 2.05 µM |  |  |  |  |  |  |  |  |  |  |  | 
Cc1cc(Cc2cc(C)cc(C(C)(C)C)c2O)c(O)c(C(C)(C)C)c1 [compound 4, 2,2′-methylene bis(6-tert-butyl-4-methylphenol)] | 18.6 ± 0.94 µM | 74.11 ± 1.98% | No significant percentage change | 8.05 ± 1.92% | activated | suppressed | suppressed | suppressed | activated | two | Forty-one | 82 genes | pathway 'DNA-templated DNA replication' [4, 5]: suppressed; pathway 'metaphase/anaphase transition of mitotic cell cycle' [4, 5]: suppressed
CC(c1cc(C(C)(C)C)cc(C(C)(C)C)c1O)c1cc(C(C)(C)C)cc(C(C)(C)C)c1O [compound 5, 1,1-bis(3,5-di-tert-butyl-2-hydroxyphenyl)ethane] | 18.1 ± 0.68 µM |  |  |  | activated |  |  | suppressed | activated | three |  | 80 genes | pathways 'steroid biosynthetic process', 'alcohol biosynthetic pathway', 'alcohol metabolic process', 'organic hydroxy compound metabolic process' [4, 5]: suppressed
Cc1cc(Cc2cc(C)cc(C3CCCCC3)c2O)c(O)c(C2CCCCC2)c1 [compound 6, 2,2′-methylene bis(6-cyclohexyl-4-methylphenol)] | 20.16 ± 0.06 µM | 72.30 ± 1.68% | No significant percentage change | 6.76 ± 3.28% |  | suppressed | suppressed |  |  | one | nine |  | angiogenesis-related pathways 'vasculature development', 'blood vessel morphogenesis', 'blood vessel development' [4, 5]: activated; pathway 'inflammatory response' [4, 5]: activated; pathway 'response to nutrients levels' [4, 5]: activated; pathways 'nuclear chromosome segregation', 'mitotic nuclear division', 'chromosome segregation' [4, 5]: down-regulated

Source: publication PMC10459118, “The Effect of Plastic-Related Compounds on Transcriptome-Wide Gene Expression on CYP2C19-Overexpressing HepG2 Cells” (Molecules, 2023)
